Test results taken from patent US10793892B2, “Method for detecting the presence of expanded spectrum β-lactamase-producing bacteria in a sample” (INSERM (INSTITUT NATIONAL DE LA SANTE ET DE LA RECHERCHE …, priority 2011, dated 2020).

How the values were obtained:
K. oxytoca = assay: Susceptibility testing, MIC by Etest; format: cell-based, Klebsiella oxytoca; details: K. oxytoca Wild-type penicillinase, n=1
Procedure: (§1) Susceptibility testing was performed by determining MIC values using the Etest® (AB bioMérieux; Solna, Sweden) on Mueller-Hinton agar plates at 37° C. and results were recorded according to US guidelines (CLSI), as updated in 2012 (2). The breakpoints for cefotaxime are susceptible (S)≤1 and resistant (R)≥4 μg/ml, and for ceftazidime S≤4 and R≥16 μg/ml.

S. thyphimurium [1] = assay: ESBL NDP test using spiked blood cultures; format: biochemical; set-up: key: (+) and (−) referred to color change being, red to yellow or unchanged, respectively; (+) and (−) referred to color change being, red to yellow or unchanged, respectively; details: S. thyphimurium 10.81, CTX-M-1
Procedure: (§2) Strains were isolated on Mueller-Hinton agar (Biorad, Marnes-la-Coquette, France) and incubated at 37° C. for 16 h to 24 h before performing the NDP rapid ESBL test as follows. One calibrated inoculated loop (10 μl) of the tested strain was resuspended in 150 μl of 20 mM Tris-HCl lysis buffer previously distributed in Microbead tubes (Ultraclean Microbial DNA isolation kit Bead Tubes, MO BIO Laboratories, Carlsbad, USA). Mechanical lysis of bacteria was performed by strong agitation of Microbead tubes using a vortex adapter (MO BIO Laboratories) for 30 min at room temperature. This bacterial suspension was centrifuged at 10,000×g at room temperature for 5 min. Thirty μl of the supernatant was mixed in a well of a 96-well tray with 100 μl of a 1 ml solution made of 3 mg of purified cefotaxime sodium salt (Sigma-Aldrich, Saint-Quentin-Fallavier, France) in a pH 7.8 phenol red solution. […]. […] Similarly, culture extracts were analyzed in wells containing cefotaxime and tazobactam (4 mg/ml). […]
(§3) Rapid detection of ESBL producers was attempted from spiked blood cultures which positivity was assessed using the BactAlert blood culture system (bioMérieux). […] Spiked blood cultures were made of 1×10^3 CFU of each strain and incubated 24 to 48 h before a positivity of the blood culture was detected by the BactAlert system. […]

S. ficaria [2] = assay: ESBL NDP test using spiked blood cultures; format: biochemical; set-up: key: (+) and (−) referred to color change being, red to yellow or unchanged, respectively; (+) and (−) referred to color change being, red to yellow or unchanged, respectively; details: S. ficaria CIP 104255, Wild-type
Procedure: as §2, §3

E. aerogenes = assay: ESBL NDP test using cultured strains; format: biochemical, Enterobacter aerogenes; set-up: key: (+) and (−) referred to color change being, red to yellow or unchanged, respectively; (+) and (−) referred to color change being, red to yellow or unchanged, respectively
Procedure: (§4) Strains were isolated on Mueller-Hinton agar (Biorad, Marnes-la-Coquette, France) and incubated at 37° C. for 16 h to 24 h before performing the NDP rapid ESBL test as follows. One calibrated inoculated loop (10 μl) of the tested strain was resuspended in 150 μl of 20 mM Tris-HCl lysis buffer previously distributed in Microbead tubes (Ultraclean Microbial DNA isolation kit Bead Tubes, MO BIO Laboratories, Carlsbad, USA). Mechanical lysis of bacteria was performed by strong agitation of Microbead tubes using a vortex adapter (MO BIO Laboratories) for 30 min at room temperature. This bacterial suspension was centrifuged at 10,000×g at room temperature for 5 min. Thirty μl of the supernatant was mixed in a well of a 96-well tray with 100 μl of a 1 ml solution made of 3 mg of purified cefotaxime sodium salt (Sigma-Aldrich, Saint-Quentin-Fallavier, France) in a pH 7.8 phenol red solution. […]. The phenol red solution was made by taking 2 ml of a concentrated pH 8 phenol solution (made from a mixture of phenol red 0.5% in distilled water) to which 16.6 ml of distilled water was added. The pH value was then adjusted to a 7.8 value by adding drops of a 1 N NaOH solution. Mixture of the phenol red solution and the enzymatic suspension being tested was incubated at 37° C. for 30 min. Similarly, culture extracts were analyzed in wells containing cefotaxime and tazobactam (4 mg/ml). Other concentrations of tazobactam and other ß-lactamase inhibitors were tested giving less clear results (data not shown). […] This definition of test positivity will be applied throughout the study.

S. marcescens = assay: Susceptibility testing, MIC by Etest; format: cell-based, Serratia marcescens; details: S. marcescens Wild-type, chromosome-encoded cephalosporinase, n=2
Procedure: as §1

S. thyphimurium [3] = assay: ESBL NDP test using cultured strains; format: biochemical; set-up: key: (+) and (−) referred to color change being, red to yellow or unchanged, respectively; (+) and (−) referred to color change being, red to yellow or unchanged, respectively; details: S. thyphimurium 10.81, CTX-M-1
Procedure: as §4

E. sakazakii = assay: ESBL NDP test using cultured strains; format: biochemical; set-up: key: (+) and (−) referred to color change being, red to yellow or unchanged, respectively; (+) and (−) referred to color change being, red to yellow or unchanged, respectively; details: overexpressed chromosome-encoded cephalosporinase, n=1
Procedure: as §4

S. ficaria [4] = assay: ESBL NDP test using cultured strains; format: biochemical; set-up: key: (+) and (−) referred to color change being, red to yellow or unchanged, respectively; (+) and (−) referred to color change being, red to yellow or unchanged, respectively
Procedure: as §4

C. brakii = assay: ESBL NDP test using cultured strains; format: biochemical; set-up: key: (+) and (−) referred to color change being, red to yellow or unchanged, respectively; (+) and (−) referred to color change being, red to yellow or unchanged, respectively; details: C. brakii Wild-type, chromosome-encoded cephalosporinase, n=1
Procedure: as §4

K. pneumoniae = assay: Susceptibility testing, MIC by Etest; format: cell-based, Klebsiella pneumoniae
Procedure: as §1

M. morganii = assay: ESBL NDP test using cultured strains; format: biochemical, Morganella morganii; set-up: key: (+) and (−) referred to color change being, red to yellow or unchanged, respectively; (+) and (−) referred to color change being, red to yellow or unchanged, respectively
Procedure: as §4

Structure (SMILES): CO/N=C(\C(=O)N[C@@H]1C(=O)N2C(C(=O)O)=C(COC(C)=O)CS[C@H]12)c1csc(N)n1 [CTX, cefotaxime]
- MICs range (K. oxytoca): 0.03 µg/mL
- ESBL NDP Test from: Blood culture (S. thyphimurium [1]): +
- ESBL NDP Test from: Blood culture (S. ficaria [2]): −
- ESBL NDP Test from: Colonies (E. aerogenes; E. aerogenes BN 1113 0225, Wild-type): −
- ESBL NDP Test from: Colonies (E. aerogenes; E. aerogenes E2O15, TEM-121): −
- Test (color change) (E. aerogenes; E. aerogenes TEM-24, n=6): −
- Test (color change) (E. aerogenes; E. aerogenes TEM-121, n=1): −
- Test (color change) (E. aerogenes; E. aerogenes Wild-type, chromosome-encoded cephalosporinase, n=1): −
- MICs range (S. marcescens): 0.19 to 0.75 µg/mL
- ESBL NDP Test from: Colonies (S. thyphimurium [3]): +
- Test (color change) (E. sakazakii): −
- ESBL NDP Test from: Colonies (S. ficaria [4]; S. ficaria CIP 104255, Wild-type): −
- Test (color change) (S. ficaria [4]; S. ficaria Wild-type, chromosome-encoded cephalosporinase, n=1): −
- Test (color change) (C. brakii): −
- MICs range (K. pneumoniae; K. pneumoniae CTX-M-3, n=1): >16 µg/mL
- MICs range (K. pneumoniae; K. pneumoniae CTX-M-14, n=3): >16 µg/mL
- MICs range (K. pneumoniae; K. pneumoniae CTX-M-15, n=28): >16 µg/mL
- MICs range (K. pneumoniae; K. pneumoniae DHA-1, n=1): >16 µg/mL
- MICs range (K. pneumoniae; K. pneumoniae DHA-2, n=1): >16 µg/mL
- MICs range (K. pneumoniae; K. pneumoniae GES-1, n=1): 0.5 µg/mL
- MICs range (K. pneumoniae; K. pneumoniae SHV-2a, n=2): 1 µg/mL
- MICs range (K. pneumoniae; K. pneumoniae SHV-5, n=2): >16 µg/mL
- MICs range (K. pneumoniae; K. pneumoniae SHV-12, n=1): 1 µg/mL
- MICs range (K. pneumoniae; K. pneumoniae SHV-12, n=2): 2 to 8 µg/mL
- MICs range (K. pneumoniae; K. pneumoniae SHV-28, n=3): >16 µg/mL
- MICs range (K. pneumoniae; K. pneumoniae TEM-52, n=2): >16 µg/mL
- MICs range (K. pneumoniae; K. pneumoniae Wild-type penicillinase, n=2): 0.02 to 0.03 µg/mL
- ESBL NDP Test from: Colonies (M. morganii; M. morganii BG 1106 5902, Wild-type): −
- ESBL NDP Test from: Colonies (M. morganii; M. morganii BG 1117 0617, Wild-type): −
- Test (color change) (M. morganii; M. morganii Wild-type, chromosome-encoded cephalosporinase, n=2): −
